Measured values from patent publication US8940310B2, “Methods of treatment using TLR7 and/or TLR9 inhibitors” (Dynavax Technologies Corporation, priority 2010, dated 2015).
[I] = hypoxanthine (inosine); d = 2'-deoxy (DNA); m = 2'-O-methyl

Tested on: human B-cells
Experiment: Human B-cells cultured in the presence of IRPs, IL-6
[1] = Experiment # 10, Max Conc 2.0 uM
[2] = Experiment # 8, Max Conc 2.0 uM
[3] = Experiment # 11, Max Conc 2.0 uM
[4] = Experiment # 7, Max Conc 4.0 uM
[5] = Experiment # 4, Max Conc 4.0 uM
[6] = Experiment # 5, Max Conc 4.0 uM
[7] = Experiment # 6, Max Conc 4.0 uM
[8] = Experiment # 1, Max Conc 4.0 uM
[9] = Experiment # 2, Max Conc 4.0 uM
[10] = Experiment # 9, Max Conc 2.0 uM

Method: For the human B-cell assay, B-cells were purified from total blood cells obtained from healthy donors using magnetic beads (CD19 positive). Cells were resuspended in fresh medium (RPMI 1640 with 10% fetal calf serum, 50 units/mL penicillin, 50 μg/mL streptomycin, and 2 mM glutamine). At 48 hours, supernatants were collected and cytokine levels, IL-6, were measured using immunoassay.
To further investigate the effect of IRPs on B-cell stimulatory activity, a wide variety of IRP sequences were assayed for IL-6, along with positive and negative controls. The experiment was performed as described in Example 1 using doses of IRP of either 4.0 μM or 2.0 μM. The positive control was an immunostimulatory sequence (ISS) with SEQ ID NO:157. […] The results are presented as the average normalized IL-6 response over several experiments.

5′-UGC TGC TCC TGG AGI GGT TGT AAG T (DNA UGCTGCTCCTGGAGNGGTTGTAAGT; sugars from the 5' end m3 d22, [I] at 15, backbone not given here) [SEQ ID NO:130]
Normalized IL-6 Response (Percentage of Positive Control) [1]: 49%

5′-UGC TTG TCC TGG AGI GGT GTT GT (DNA UGCTTGTCCTGGAGNGGTGTTGT; sugars from the 5' end m3 d20, [I] at 15, backbone not given here) [SEQ ID NO:124]
Normalized IL-6 Response (Percentage of Positive Control) [2]: 33%

5′-TGC TGC TCC TTG AGI GGT GTT GT (DNA TGCTGCTCCTTGAGNGGTGTTGT; DNA, [I] at 15, backbone not given here) [SEQ ID NO:179]
Normalized IL-6 Response (Percentage of Positive Control) [3]: 40%

5′-UGC CAA TCC TGG AGI GGT GTT GT (DNA UGCCAATCCTGGAGNGGTGTTGT; sugars from the 5' end m3 d20, [I] at 15, backbone not given here) [SEQ ID NO:135]
Normalized IL-6 Response (Percentage of Positive Control) [2]: 42%

5′-TGCTTGTCCTGGAGGGGTTGT-3′ (DNA, backbone not given here; further chemistry not fully specified) [SEQ ID NO:43]
Normalized IL-6 Response (Percentage of Positive Control) [4]: 9%

5′-UGC TCC TGG AGG GGT TGT (DNA NNNTCCTGGAGGGGTTGT; listed as DNA, chemistry not fully specified) [SEQ ID NO:83]
Normalized IL-6 Response (Percentage of Positive Control) [5]: 6%
Normalized IL-6 Response (Percentage of Positive Control) [4]: 6%

5′-UGCTGCTCCTTGAGGGGTTGUU UG U (DNA UGCTGCTCCTTGAGGGGTTGUUUGU; sugars from the 5' end m3 d16 m6, backbone not given here) [SEQ ID NO:104]
Normalized IL-6 Response (Percentage of Positive Control) [5]: 7%
Normalized IL-6 Response (Percentage of Positive Control) [4]: 7%

5′-TGCTCCTGGAGGGGTTGTAAGT-3′ (DNA TGCTCCTGGAGGGGTTGTAAGT; DNA, backbone and methylation of C not given here; further chemistry not fully specified) [SEQ ID NO:67]
Normalized IL-6 Response (Percentage of Positive Control) [5]: 8%
Normalized IL-6 Response (Percentage of Positive Control) [6]: 7%
Normalized IL-6 Response (Percentage of Positive Control) [7]: 4%
Normalized IL-6 Response (Percentage of Positive Control) [4]: 8%

5′-TGCTTGTCCTGGAGGGGTTGT (DNA TGCTTGTCCTGGAGGGTTGT; listed as DNA, chemistry not fully specified) [SEQ ID NO:204]
Normalized IL-6 Response (Percentage of Positive Control) [5]: 9%

5′-UGC TGC TCC TTG AGI GGT TGT (DNA UGCTGCTCCTTGAGNGGTTGT; sugars from the 5' end m3 d18, [I] at 15, backbone not given here) [SEQ ID NO:127]
Normalized IL-6 Response (Percentage of Positive Control) [1]: 46%

5′-UGCTGCTCCTTGAGGGGTTGTTTGT (DNA NNNTGCTCCTTGAGGGGTTGTTTGT; listed as DNA, chemistry not fully specified) [SEQ ID NO:107]
Normalized IL-6 Response (Percentage of Positive Control) [5]: 43%
Normalized IL-6 Response (Percentage of Positive Control) [4]: 43%

5′-UGC TCC TGG AGG GGU UGU (DNA UGCTCCTGGAGGGGUUGU; sugars from the 5' end m3 d11 m4, backbone not given here) [SEQ ID NO:85]
Normalized IL-6 Response (Percentage of Positive Control) [5]: 18%
Normalized IL-6 Response (Percentage of Positive Control) [4]: 18%

5′-TGC TGC TCC TGG AGI GGT TGT AAG T-3′ (DNA TGCTGCTCCTGGAGNGGTTGTAAGT; DNA, [I] at 15, backbone and methylation of C not given here) [SEQ ID NO:78]
Normalized IL-6 Response (Percentage of Positive Control) [8]: 26%
Normalized IL-6 Response (Percentage of Positive Control) [3]: 29%

5′-TGC TCC TTG AGG GGT TGT-3′ (DNA TGCTCCTTGAGGGGTTGT; DNA, backbone not given here; further chemistry not fully specified) [SEQ ID NO:69]
Normalized IL-6 Response (Percentage of Positive Control) [5]: 11%
Normalized IL-6 Response (Percentage of Positive Control) [4]: 11%

5′-UGC TTG TCC TGG AGI GGT TGT (DNA UGCTTGTCCTGGAGNGGTTGT; sugars from the 5' end m3 d18, [I] at 15, backbone not given here) [SEQ ID NO:123]
Normalized IL-6 Response (Percentage of Positive Control) [9]: 35%
Normalized IL-6 Response (Percentage of Positive Control) [10]: 35%

5′-UGC TGC TCC TGG AGI GGT GTT GT (DNA UGCTGCTCCTGGAGNGGTGTTGT; sugars from the 5' end m3 d20, [I] at 15, backbone not given here) [SEQ ID NO:182]
Normalized IL-6 Response (Percentage of Positive Control) [1]: 53%

5′TGC TCC TTG AGI GGT TGT TTG T-3′ (DNA TGCTCCTTGAGNGGTTGTTTGT; DNA, [I] at 12, backbone not given here) [SEQ ID NO:63]
Normalized IL-6 Response (Percentage of Positive Control) [5]: 46%
Normalized IL-6 Response (Percentage of Positive Control) [6]: 48%
Normalized IL-6 Response (Percentage of Positive Control) [7]: 41%
Normalized IL-6 Response (Percentage of Positive Control) [4]: 46%

5′-UGC TGC TCC TTG AGI GG (DNA UGCTGCTCCTTGAGNGG; sugars from the 5' end m3 d14, [I] at 15, backbone not given here) [SEQ ID NO:117]
Normalized IL-6 Response (Percentage of Positive Control) [6]: 17%
Normalized IL-6 Response (Percentage of Positive Control) [7]: 13%

5′-TGC TGC TCC TTG AGI GGT TGT AAG T (DNA TGCTGCTCCTTGAGNGGTTGTAAGT; DNA, [I] at 15, backbone not given here) [SEQ ID NO:181]
Normalized IL-6 Response (Percentage of Positive Control) [3]: 38%

5′-TGC TCC TGG AGG GGT TGT-HEG-HEG-3′ (DNA TGCTCCTGGAGGGGTTGTNN; 3' HEG-HEG, chemistry not fully specified) [SEQ ID NO:141]
Normalized IL-6 Response (Percentage of Positive Control) [5]: 8%
Normalized IL-6 Response (Percentage of Positive Control) [4]: 8%

5′-UGC TTG TCC TGG AGI GGT TG-HEG-T (DNA NNNTTGTCCTGGAGNGGTTGNT; inosine, internal HEG spacer, chemistry not fully specified) [SEQ ID NO:142]
Normalized IL-6 Response (Percentage of Positive Control) [9]: 35%
Normalized IL-6 Response (Percentage of Positive Control) [2]: 22%

5′-TGC TTG TCC TGG AGI GGT TGT-3′ (DNA TGCTTGTCCTGGAGNGGTTGT; DNA, [I] at 15, backbone and methylation of C not given here) [SEQ ID NO:74]
Normalized IL-6 Response (Percentage of Positive Control) [8]: 21%
Normalized IL-6 Response (Percentage of Positive Control) [9]: 25%
Normalized IL-6 Response (Percentage of Positive Control) [10]: 23%

5′-TGC TGC TCC TGG AGI GGT TGT-3′ (DNA TGCTGCTCCTGGAGNGGTTGT; DNA, [I] at 15, backbone and methylation of C not given here) [SEQ ID NO:66]
Normalized IL-6 Response (Percentage of Positive Control) [8]: 20%
Normalized IL-6 Response (Percentage of Positive Control) [10]: 18%

5′-UGC HEG TCC TGG AGI GGT GTT GT (DNA NNNNTCCTGGAGNGGTGTTGT; HEG spacer, inosine, chemistry not fully specified) [SEQ ID NO:77]
Normalized IL-6 Response (Percentage of Positive Control) (Experiment # 3, Max Conc 4.0 uM): 24%

5′-UGC TGC TCC TTG AGI GGT TGT AAG T (DNA UGCTGCTCCTTGAGNGGTTGTAAGT; sugars from the 5' end m3 d22, [I] at 15, backbone not given here) [SEQ ID NO:129]
Normalized IL-6 Response (Percentage of Positive Control) [1]: 51%

5′-UGC TGC TCC TTG AGI GGT GTT GT (DNA UGCTGCTCCTTGAGNGGTGTTGT; sugars from the 5' end m3 d20, [I] at 15, backbone not given here) [SEQ ID NO:180]
Normalized IL-6 Response (Percentage of Positive Control) [1]: 46%

5′-TGCTGCTCCTTGAGGGGTTGTTTGT-3′ (DNA TGCTGCTCCTTGAGGGGTTGTTTGT; DNA, backbone and methylation of C not given here; further chemistry not fully specified) [SEQ ID NO:58]
Normalized IL-6 Response (Percentage of Positive Control) [6]: 33%
Normalized IL-6 Response (Percentage of Positive Control) [7]: 29%

5′-UGC TGC TCC TGG AGI GGT TGT (DNA UGCTGCTCCTGGAGNGGTTGT; sugars from the 5' end m3 d18, [I] at 15, backbone not given here) [SEQ ID NO:125]
Normalized IL-6 Response (Percentage of Positive Control) [3]: 38%

5′-TGC TGC TCC TTG AGI GGT TGT TTG T-3′ (DNA TGCTGCTCCTTGAGNGGTTGTTTGT; DNA, [I] at 15, backbone and methylation of C not given here) [SEQ ID NO:62]
Normalized IL-6 Response (Percentage of Positive Control) [5]: 49%
Normalized IL-6 Response (Percentage of Positive Control) [4]: 49%

5′-TGC TCC TTG AGI GGT TGT-3′ (DNA TGCTCCTTGAGNGGTTGT; DNA, [I] at 12, backbone not given here) [SEQ ID NO:71]
Normalized IL-6 Response (Percentage of Positive Control) [5]: 12%
Normalized IL-6 Response (Percentage of Positive Control) [6]: 15%
Normalized IL-6 Response (Percentage of Positive Control) [7]: 10%
Normalized IL-6 Response (Percentage of Positive Control) [4]: 12%
Normalized IL-6 Response (Percentage of Positive Control) [2]: 4%
Normalized IL-6 Response (Percentage of Positive Control) [10]: 14%
